{
  "source": "patent US7872003B2",
  "about": "“Pharmaceutical compounds” (F. Hoffmann-La Roche AG, priority 2005, dated 2011)",
  "test_system": "Caco-2 cells",
  "test": "Caco-2 permeability",
  "format": "in vitro ADME",
  "settings": "bidirectional Caco-2 assay; values >/=1.0 indicate active cellular efflux",
  "description": "(iii) Caco-2 Permeability\nCaco-2 cells were seeded onto Millipore Multiscreen plates at 1×10^5 cells/cm^2, and were cultured for 20 days. Assessment of compound permeability was subsequently conducted. The compounds were applied to the apical surface (A) of cell monolayers and compound permeation into the basolateral (B) compartment was measured. This was performed in the reverse direction (B−A) to investigate active transport. A permeability coefficient value, Papp, for each compound, a measure of the rate of permeation of the compound across the membrane, was calculated. Compounds were grouped into low (Papp</=[…]) or high (Papp>/=[…]) absorption potential based on comparison with control compounds with established human absorption.\nFor assessment of a compound's ability to undergo active efflux, the ratio of basolateral (B) to apical (A) transport compared with A to B was determined. Values of B−A/A−B>/=1.0 indicated the occurrence of active cellular efflux. All of the compounds tested through the Caco-2 permeability screen had Papp values>/=1.0×10^6 cm/s.",
  "data": [
    {"smiles": "CN1CCN(Cc2cc3nc(-c4cccc(O)c4)nc(N4CCOCC4)c3s2)CC1", "note": "[PI540]", "values": [
      {"measurement": "B−A/A−B asymmetry index", "value": "less than 1.0"}
    ]}
  ]
}
